Source: the NIST ThermoML archive (doi:10.1016/j.jct.2016.05.001)
Numbers after ± are expanded uncertainties.

Assay: molar heat capacity at constant pressure
Settings: 101.33 kPa, Crystal, Small (less than 1 g) adiabatic calorimetry

Nc1nc2ncc(CNc3ccc(C(=O)N[C@@H](CCC(=O)O)C(=O)O)cc3)nc2c(=O)[nH]1.O.O [folic acid dihydrate]
Settings	molar heat capacity at constant pressure [J/K/mol]
4 K	0.102 ± 0.017
5 K	0.2491 ± 0.021
6 K	0.5453 ± 0.031
6.19 K	0.593 ± 0.033
6.38 K	0.655 ± 0.036
6.61 K	0.721 ± 0.038
6.75 K	0.802 ± 0.041
6.92 K	0.887 ± 0.045
7 K	0.912 ± 0.045
7.08 K	0.945 ± 0.047
7.25 K	1.04 ± 0.051
7.41 K	1.13 ± 0.055
7.57 K	1.252 ± 0.06
7.74 K	1.385 ± 0.065
7.91 K	1.525 ± 0.071
8 K	1.566 ± 0.072
8.09 K	1.638 ± 0.076
8.26 K	1.768 ± 0.081
8.44 K	1.945 ± 0.088
8.62 K	2.088 ± 0.094
8.81 K	2.306 ± 0.1
8.99 K	2.516 ± 0.11
9 K	2.515 ± 0.11
9.18 K	2.748 ± 0.12
9.37 K	2.964 ± 0.13
9.57 K	3.161 ± 0.14
9.76 K	3.423 ± 0.15
9.96 K	3.738 ± 0.16
10 K	3.778 ± 0.16
10.25 K	4.166 ± 0.18
10.62 K	4.708 ± 0.2
10.99 K	5.254 ± 0.22
11.38 K	5.862 ± 0.25
11.76 K	6.483 ± 0.27
12.15 K	7.179 ± 0.3
12.54 K	7.815 ± 0.33
12.94 K	8.333 ± 0.35
13.34 K	8.928 ± 0.37
13.74 K	9.587 ± 0.4
14.14 K	10.14 ± 0.42
14.55 K	10.74 ± 0.45
14.95 K	11.46 ± 0.48
15 K	11.59 ± 0.48
15.36 K	12.2 ± 0.51
15.77 K	12.88 ± 0.54
16.17 K	13.8 ± 0.57
16.58 K	14.68 ± 0.61
16.99 K	15.55 ± 0.64
17.41 K	16.41 ± 0.68
17.82 K	17.5 ± 0.72
18.23 K	18.49 ± 0.76
18.65 K	19.48 ± 0.8
19.07 K	20.54 ± 0.85
19.48 K	21.69 ± 0.89
19.9 K	23.01 ± 0.95
20 K	23.04 ± 0.95
20.65 K	24.46 ± 0.33
21.68 K	27.43 ± 0.37
22.72 K	30.51 ± 0.4
23.77 K	33.53 ± 0.43
24.84 K	36.78 ± 0.46
25 K	37.08 ± 0.47
25.91 K	40.14 ± 0.5
26.99 K	43.46 ± 0.53
28.09 K	47.02 ± 0.56
29.19 K	50.59 ± 0.6
30 K	53.06 ± 0.59
30.31 K	54.03 ± 0.6
31.67 K	58.43 ± 0.65
32.99 K	62.72 ± 0.7
34.13 K	66.37 ± 0.73
35 K	68.97 ± 0.76
35.27 K	70.06 ± 0.77
36.42 K	73.12 ± 0.8
37.58 K	77.03 ± 0.85
38.73 K	80.18 ± 0.88
39.9 K	83.86 ± 0.92
40 K	84.24 ± 0.92
41.07 K	87.28 ± 0.52
42.25 K	90.77 ± 0.54
43.42 K	94.06 ± 0.55
44.6 K	97.24 ± 0.57
45 K	98.58 ± 0.58
45.79 K	100.6 ± 0.6
46.98 K	104.2 ± 0.6
48.17 K	107.5 ± 0.6
49.36 K	110.7 ± 0.6
50 K	112.2 ± 0.7
50.59 K	113.9 ± 0.7
51.85 K	117.3 ± 0.7
53.22 K	120.9 ± 0.7
54.67 K	124.8 ± 0.7
55.88 K	127.9 ± 0.7
57.09 K	131 ± 0.8
58.3 K	134.2 ± 0.8
59.51 K	137.3 ± 0.8
60 K	138.8 ± 0.8
60.73 K	140.4 ± 0.8
61.94 K	143.5 ± 0.8
63.16 K	146.9 ± 0.8
64.38 K	150.7 ± 0.9
65.6 K	153.5 ± 0.9
66.82 K	156.6 ± 0.9
68.05 K	160.1 ± 0.9
69.27 K	162.8 ± 0.9
70 K	164.4 ± 0.9
70.5 K	165.1 ± 0.9
71.99 K	169.2 ± 1
74 K	173.6 ± 1
76.06 K	178.7 ± 1
78.43 K	183 ± 1
80 K	186.3 ± 1
80.89 K	187.7 ± 1.1
82.9 K	192.1 ± 1.1
84.91 K	195.6 ± 1.1
86.92 K	199 ± 1.1
88.92 K	202.8 ± 1.1
90 K	204.7 ± 1.1
90.93 K	206.4 ± 1.1
92.93 K	210.3 ± 1.1
94.93 K	214 ± 1.1
96.93 K	217.8 ± 1.2
98.92 K	222.6 ± 1.2
100 K	224.7 ± 1.2
100.92 K	227 ± 1.2
103.4 K	232.2 ± 1.2
106.39 K	237.8 ± 1.3
109.39 K	242.7 ± 1.3
110 K	244.1 ± 1.3
112.4 K	248.4 ± 1.3
115.42 K	253.8 ± 1.3
118.43 K	259.3 ± 1.4
120 K	262 ± 1.4
121.45 K	264.5 ± 1.4
124.48 K	269.8 ± 1.4
127.5 K	275.4 ± 1.4
130 K	280.1 ± 1.5
130.53 K	281.3 ± 1.5
133.57 K	286.9 ± 1.5
136.6 K	292.2 ± 1.5
139.64 K	297.9 ± 1.5
140 K	298.3 ± 1.5
142.68 K	303.3 ± 1.6
145.73 K	308.5 ± 1.6
148.77 K	314.4 ± 1.6
150 K	316.4 ± 1.6
151.82 K	319.5 ± 1.7
154.87 K	325 ± 1.7
157.92 K	330.4 ± 1.7
160 K	334.1 ± 1.7
160.98 K	335.8 ± 1.7
164.06 K	341.4 ± 1.8
167.12 K	346.3 ± 1.8
170 K	351.6 ± 1.8
170.18 K	351.6 ± 1.8
173.24 K	357.2 ± 1.8
176.3 K	362.7 ± 1.9
179.37 K	368.2 ± 1.9
180 K	369 ± 1.9
182.43 K	373.5 ± 1.9
185.5 K	378.4 ± 1.9
188.56 K	383.4 ± 2
190 K	386.3 ± 2
191.63 K	389.3 ± 2
194.69 K	394.9 ± 2
197.76 K	400.1 ± 2
200 K	403.7 ± 2.1
200.82 K	404.6 ± 2.1
203.89 K	410.4 ± 2.1
207.45 K	417 ± 2.1
210 K	421.1 ± 2.1
211.53 K	423.5 ± 2.2
215.66 K	431.6 ± 2.2
219.74 K	437.6 ± 2.2
220 K	438.6 ± 2.2
223.82 K	445.1 ± 2.3
227.89 K	452.3 ± 2.3
230 K	456.1 ± 2.3
231.96 K	459.5 ± 2.3
236.04 K	466.9 ± 2.4
240 K	473.7 ± 2.4
240.12 K	474.5 ± 2.4
244.2 K	481.2 ± 2.4
248.27 K	487.4 ± 2.5
250 K	491.2 ± 2.5
252.34 K	495.1 ± 2.5
256.41 K	502.6 ± 2.5
260 K	508.6 ± 2.6
260.47 K	509.7 ± 2.6
264.53 K	516.2 ± 2.6
268.59 K	523.3 ± 2.6
270 K	525.9 ± 2.7
272.64 K	530.3 ± 2.7
273.15 K	531.3 ± 2.7
276.68 K	537.3 ± 2.7
280 K	543.1 ± 2.7
280.75 K	545.1 ± 2.8
284.78 K	550.6 ± 2.8
288.79 K	558.6 ± 2.8
290 K	560.3 ± 2.8
292.8 K	565.2 ± 2.9
296.8 K	571.5 ± 2.9
298.15 K	574.4 ± 2.9
300 K	577.6 ± 2.9
300.78 K	578.9 ± 2.9
306.79 K	590 ± 3
310 K	595.2 ± 3
312.24 K	599.4 ± 3
320 K	613.1 ± 3.1
320.03 K	612.7 ± 3.1
326.53 K	625.5 ± 3.1
330 K	631.7 ± 3.2
332.98 K	637.3 ± 3.2
333 K	637.5 ± 3.2
